Patent USRE46907E1, “Suppression of cancer growth and metastasis using nordihydroguaiaretic acid derivatives with metabolic modulators” (THE JOHNS HOPKINS UNIVERSITY, priority 2008, dated 2018)
Peptide text beside a SMILES is read from it. * marks the point of attachment. Cbz = O=C(OCc1ccccc1)*; CH2F = FC*

How the values were obtained:
[1] = test system: PDK-1/Akt pathway-related proteins; assay: Western blotting of PDK-1/Akt pathway-related proteins in 4T1 cells; format: cell-based, mouse; details: 4T1, 5 hrs after treatment, M4N 80 μM, Desferoxamine 75 or 150 μM
Protocol: (§1) Western blotting: After cells had been grown in 25 mm^2 flasks and treated with reagents, the cells were washed with PBS (−) three times and suspended in RIP A buffer (150 mM NaCl, 50 mM Tris-HCl (pH 8,0), 0.1% SDS, 1% NP40, and 0.5% deoxycholate) supplemented with protease inhibitor cocktail (Calbiochem, San Diego, Calif.). The sample volumes were adjusted by the total protein amount. Protein assay was performed by Bio-Rad Protein Assay (Bio-Rad Laboratories, Inc. Hercules, Calif.). The samples were resolved by the standard SDS-polyacrylamide gel electrophoresis and transferred to nitrocellulose membrane (Amersham Biosciences, Bjorkgatan, Sweden). The membranes were blocked with skim milk, and incubated with primary antibodies at 4° C. overnight and then with secondary antibody conjugated with horse radish peroxidase at room temperature for 2 hrs. The signals were detected by western blot chemiluminescence reagent plus (New England Nuclear Life Science Products, Boston, Mass.).

4T1 cells [2] = assay: TUNEL apoptosis assay in 4T1 cells; format: cell-based, mouse
Protocol: (§2) Cell Culture Either cell line 4T1 or 67NR was a gift from Dr. Miller (20). The cells were cultured in RPMI1640 medium supplemented with glucose (14 mM), pyruvate (1 mM), penicillin (100 units/ml), streptomycin (100 μg/ml), and fetal bovine serum (10%), buffered with 25 mM HEPES (pH 7.4). LNCaP human prostate cancer cell line was purchased from American Type Culture Collection (Manassas, Va.). The cell line was cultured in RPMI1640 medium supplemented with glucose (14 mM), pyruvate (1 mM), penicillin (100 units/ml), streptomycin (100 μg/ml), and fetal bovine serum (10%). Drugs were dissolved in dimethyl sulfoxide (DMSO) at a suitable concentration so that the final concentration of DMSO in the medium was less than 0.1%.
(§3) Apoptosis assay: Simple TLTNEL assay was conducted by using TUNEL apoptosis detection kit (Upstate, Temecula, Calif.) with some modification. For the evaluation of the effect of PKCδ wild type and dominant negative vectors on TUNEL-positive cell death, we first transfected 4T1 or 67NR cells with these vectors by effectene (Qiagen, Valencia, Calif.). Wild type PKCδ vector is constructed from wild type PKCδ gene and pEGFP (Promega, Madison, Wis.). Dominant negative PKCδ vector is constructed from PKCδ gene mutated at a 376th amino acid residue (threonine) and pEGFP (Promega, Madison, Wis.) This threonine residue is located in ATP-binding domain of protein kinase Cδ, and therefore essential for any kinase reaction of the protein so that this mutant protein supposedly function as dominant negative. As a control we used pEGFP-N3 vector was used. These vectors contain green fluorescent protein (GFP) gene to be used as a transfection marker. The vectors are kind gifts from Dr. Yuspa (National Institutes of Health, Bethesda, Md.) (88). Twenty four hours after transfection, the cells were treated with M4N, Rottlerin, or Ly294002. Then 24 hrs after this treatment with these reagents, the cells were fixed with 10% formaldehyde in phosphate buffered saline without calcium and magnesium (PBS (−)). The cells were then incubated with rabbit anti-GFP antibody (MBL International, Woburn, Mass.) followed by treatment with anti-rabbit IgG antibody conjugated with fluorescein (Promega, Madison, Wis.). TUNEL staining was conducted by using TUNEL apoptosis detection kit (Upstate, Temecula, Calif.) except for using Streptavidin-Alexa Fluor 568 (Molecular Probes, Eugene, Oreg.) instead of Avidine-Rhodamine contained in the kit. Cell death was evaluated by dividing the number of TUNEL-positive cells among the cells positive with anti-GFP staining by the number of these GFP-positive cells.

HIF [3] = assay: Western blotting of HIF in 4T1 cells; format: cell-based, mouse; details: 4T1, 5 hrs
Protocol: as §1

PKCδ [4] = assay: Immunocytochemistry of PKCδ cellular localization in 4T1 cells; format: cell-based, mouse; details: 4T1, 5 hrs; for nuclear staining for phosphor-PKCδ (Thr505): without Desferoxamine co-treatment
Protocol: (§4) Immunocytocheimstry: Cells were cultured on glass cover slips coated with poly-L-ornithine (Sigma, Saint Louis, Mo.). At 5 hrs after treatment with drugs, the cells were fixed with 10% formaldehyde in diluted in PBS (−) and washed with PBS (−) three times. After permeabilized by 0.2% Tryton X-100 and 1% goat serum diluted in PBS (−), the cells were blocked by PBS (−) containing 5% goat serum. The cells were then incubated with primary antibodies diluted in PBS (−) containing 0.5% bovine serum albumin (BSA), and with secondary antibodies, which is either anti-IgG conjugated with fluorescein (Vector Laboratories. Burlingame, Calif.), diluted in PBS (−) containing 0.5% BSA. The cells were observed through Zeiss fluorescent microscope (Carl Zeiss, Thornwood, N.Y.).

PKCδ [5] = assay: Western blotting of total PKCδ and phosphor-PKCδ (Thr505) in 67NR cells; format: cell-based, mouse; details: 5 hrs, M4N 80 μM, Ro 5 μM, Ly 20 μM, Des 150 μM
Protocol: as §1, with “The” for “Western blotting: After cells had been grown in 25 mm^2 flasks and treated with reagents, the cells were washed with PBS (−) three times and suspended in RIP A buffer (150 mM NaCl, 50 mM Tris-HCl (pH 8,0), 0.1% SDS, 1% NP40, and 0.5% deoxycholate) supplemented with protease inhibitor cocktail (Calbiochem, San Diego, Calif.). The”

PKCδ [6] = assay: Western blotting of total PKCδ and phosphor-PKCδ (Thr505) in 4T1 cells; format: cell-based, mouse; details: 4T1, 5 hrs; M4N 80 μM, Ro 5 μM, Ly 20 μM, Des 150 μM
Protocol: as §1, with “The” for “Western blotting: After cells had been grown in 25 mm^2 flasks and treated with reagents, the cells were washed with PBS (−) three times and suspended in RIP A buffer (150 mM NaCl, 50 mM Tris-HCl (pH 8,0), 0.1% SDS, 1% NP40, and 0.5% deoxycholate) supplemented with protease inhibitor cocktail (Calbiochem, San Diego, Calif.). The”

67NR cells [7] = assay: TUNEL apoptosis assay in 67NR cells; format: cell-based, mouse
Protocol: as §2, §3

HIF [8] = assay: Western blotting of HIF in 67NR cells; format: cell-based, mouse; details: 5 hrs
Protocol: as §1

[9] = test system: LNCaP human prostate cancer cells; format: cell-based; details: for effect on TUNEL-positive cell death induced by M4N: 24 hrs
Protocol: as §2, §3

LNCaP tumors = assay: Nude mice orthotropically implanted with LNCaP tumors, about eight times tumor volume, treatment from day 3; format: in vivo, mouse
Protocol: Surgical orthotropic implantation of LNCaP tumors: LNCaP cells were grown as described above. Cells growing subconfluently were collected and resuspended into the tissue culture medium without fetal bovine serum and antibiotics. After counting the number of the cells, the cell concentration was adjusted using the same medium. After 20 μl of the medium containing a selected number of cancer cells (about 5×10^7 cells) had been mixed together with the same volume of Matrigel (BD science, Bedford, Mass.), the combined solution was injected into the skin of nude mice. […] The tumor tissue extracted from the skin was excised into pieces of about 2 mm diameter. After nude mice were anesthetized by 2,2,2-Tribromoethanol (Aldrich Chemical Co. Inc., Milwaukee, Wis.), a small incision was made at the abdomen of each mouse and a tumor tissue piece was implanted in the neighbor of the prostate of each mouse. Eight days after the operation, the injection of drugs was initiated, and the drugs were injected intravenously every day for the indicated periods
As in the previous experiment (FIGS. 9 to 13), in this study we administered M4N, Ly, Ro, Etoposide, or Rapamycin to mice intravenously using CPE (25/30) solvent system (87). […] However, in this experiment we implanted about eight times the volume of tumors as in the previous experiments to detect the difference of efficacy of various combination treatments much faster. We started to treat the mice with combination treatments three days after the implantation instead of eight days, considering that the tumor volume is already large at the time of implantation in this experiment. This allows less time for possible metastasis to the transplanted tumors in this experiment than in the previous one.

67NR cells [10] = assay: 67NR tumor-bearing Balb/c mice (life-span); format: in vivo, mouse; details: 5×10^4 cells, M4N 1 mg/shot, Rottlerin 100 μg/shot, three days a week from day 8
Protocol: (§5) Animals: Female Balb/e mice were obtained from Charles River Laboratories (Wilmington, Mass.). M4N and Rottlerin were dissolved into a solvent, CPE (25/30) solvent system supplied by Erimos Pharmaceutical, L.L.C. (Raleigh, N.C.) and injected into mice either intravenously or intraperitoneally, T-cell deficient male nude mice (nu/nu) were obtained from Charles River Laboratories (Wilmington, Mass.). M4N and Ly294002 were dissolved into a solvent, CPE (25/30) solvent system supplied by Erimos Pharmaceutical, L.L.C. (Raleigh, N.C.) and injected into mice intravenously.
(§6) Tumor inoculation: Either 4T1 or 67NR cells were grown as described above. Cells growing subconfluently were collected and resuspended into the tissue culture medium minus fetal bovine serum and antibiotics, After counting the number of the cells, the cell concentration was adjusted. Twenty μl of the solution containing a selected number of cancer cells (either 5×10^3 or 5×10^4 cells) was injected into each fat pad of a pair of mammary glands located close to lower limbs. Tumor size was measured by weighing tumors extracted from mouse cadavers.

[11] = test system: LNCaP human prostate cancer cells; assay: MTT cell growth assay in LNCaP cells; format: cell-based; details: 24 hrs, M4N 80 μM, Ro 5 μM, Ly 20 μM
Protocol: as §2
MTT assay: Cells were incubated in PBS (−) supplemented with 5% fetal calf serum and 0.5 mg/ml MTT, 3-(4,5-Dimethylthiazol-2-yl)-2,5-diphenyltetrazolium bromide (Sigma, Saint Louis, Mo.) for 2 hrs. After the incubation, the cells were dissolved in dimethyl sulfoxide and the color of the solutions was measured by a spectrophotometer at wavelengths of 540 and 690 nm. The values correlated with viable cell numbers were obtained by subtracting the optical density at 690 nm from that, at 540 nm.

[12] = test system: mitochondrial membrane potential; assay: Mitochondrial membrane potential; format: cell-based
4T1 cells [13] = assay: 4T1 tumor-bearing Balb/c mice (life-span, tumor size); format: in vivo, mouse; details: 5×10^4 cells, M4N 1 mg/shot, Rottlerin 100 μg/shot, three days a week from day 7
Protocol: as §5, §6

caspase-9 = assay: Western blotting of caspase-9 cleavage in 67NR cells; format: cell-based, mouse; details: 5 hrs, Rottlerin 5 μM, M4N 80 μM
Protocol: as §1

PKCδ [14] = assay: Immunocytochemistry of PKCδ cellular localization in LNCaP cells; format: cell-based, human; details: 5 hrs
Protocol: as §4

[15] = 4T1, 24 hrs, with M4N 80 μM, Rottlerin 5 μM, Desferoxamine 150 μM
[16] = 26 hrs, with M4N 80 μM, Rottlerin 5 μM, Desferoxamine 150 μM

## CC(=O)N(O)CCCCCNC(=O)CCC(=O)N(O)CCCCCNC(=O)CCC(=O)N(O)CCCCCN.CS(=O)(=O)O [Desferoxamine, Desferoxamine mesylate]
[1]
  expression of phosphorylated PDK (Ser241), Akt (Ser473), PRAS40 (Thr246), Raf (Ser259), MEK (Ser217/221): not much effect
4T1 cells [2]; [15]
  effect on cell death induced by M4N: generally augmented cell death even more
4T1 cells [2]; 4T1, 48 hr, Desferoxamine 300 μM with M4N 80 μM
  effect on cell death induced by M4N: enhanced cell death induced by M4N
HIF [3]
  HIF stabilization: induced HIF stabilization
PKCδ [4]
  cellular distribution / nuclear staining of total PKCδ: did not modulate much nuclear staining
  nuclear staining for phosphor-PKCδ (Thr505): only moderately increased nuclear staining
PKCδ [5]
  amount of phosphorylated PKCδ at Thr505: induced phosphorylation
PKCδ [6]
  amount of phosphorylated PKCδ at Thr505: induced phosphorylation
67NR cells [7]; [16]
  effect on cell death induced by M4N: generally augmented cell death even more
67NR cells [7]; 48 hr, Desferoxamine 300 μM with M4N 80 μM
  effect on cell death induced by M4N: enhanced cell death induced by M4N
HIF [8]
  HIF stabilization: induced HIF stabilization

## O=C([O-])C(Cl)Cl.[Na+] [Dichloroacetate, Sodium Dichloroacetate]
[9]
  effect on TUNEL-positive cell death induced by M4N: synergistically augmented TUNEL-positive cell death induced by M4N

## COc1cc([C@@H]2c3cc4c(cc3[C@@H](O[C@@H]3O[C@@H]5CO[C@@H](C)O[C@H]5[C@H](O)[C@H]3O)[C@H]3COC(=O)[C@H]23)OCO4)cc(OC)c1O [Etoposide]
[9]
  effect on TUNEL-positive cell death induced by M4N: synergistically augmented TUNEL-positive cell death induced by M4N
LNCaP tumors; combination groups at 80 days after tumor implantation
  mice with lung metastasis lesions: 3 out of 5
LNCaP tumors; mouse, in vivo
  time after implantation by which all mice died: ≤ 24 days

## O=c1c(-c2ccc(O)cc2)coc2cc(O)cc(O)c12 [Genistein]
4T1 cells [2]; 4T1, Genistein 50 μM, 28 hrs
  effect on TUNEL-positive cell death induced by M4N with either Ro or Ly: significantly suppressed the cell death

## CC(=O)c1c(O)c(C)c(O)c(Cc2c(O)c3c(c(C(=O)/C=C/c4ccccc4)c2O)OC(C)(C)C=C3)c1O [Rottlerin]
[9]; 28 hrs, M4N 80 μM, Ro 5 μM, Ly 20 μM
  TUNEL-positive cell death: has no effect
[9]; 28 hrs, with M4N 80 μM
  effect on cell death induced by M4N: synergistically augmented cell death induced by M4N
[9]; different concentrations of drugs
  cell death with M4N over a broad range of concentrations: induced cell death synergistically
[9]; tissue culture
  cytotoxicity alone: non-cytotoxic
67NR cells [10]
  life-span of 67NR-bearing mice: didn't have much effect on the life-span
4T1 cells [2]; 4T1, 24 hrs, M4N 80 μM, Rottlerin 5 μM, Ly294002 20 μM
  TUNEL-positive cell death: Neither Ro nor Ly alone induced TUNEL-positive cell death
4T1 cells [2]; 4T1, 24 hrs, control vector
  TUNEL-positive cell death with M4N in cells transfected with control vectors: induced cell death synergistically with M4N
4T1 cells [2]; [15]
  effect on cell death induced by M4N: greatly enhanced cell death induced by M4N
[11]
  cell growth (MTT): suppressed cell growth to some extent
[12]
  depolarization of mitochondrial membrane potential: depolarized mitochondrial membrane potential
PKCδ [4]
  cellular distribution / nuclear staining of total PKCδ: did not change much
  nuclear staining for phosphor-PKCδ (Thr505): augmented staining
PKCδ [5]
  amount of phosphorylated PKCδ at Thr505: induced phosphorylation
4T1 cells [13]
  life-span of 4T1-bearing mice: didn't extend the life-span
PKCδ [6]
  amount of phosphorylated PKCδ at Thr505: induced phosphorylation
caspase-9
  caspase-9 activation (cleavage): a small amount of caspase-9 is activated
PKCδ [14]
  expression and nuclear level of total PKCδ: Neither M4N, Ro, nor Ly treatment caused any remarkable change
  nuclear expression of phosphor-PKCδ (Thr507): augmented
67NR cells [7]; 24 hrs, control vector
  TUNEL-positive cell death with M4N in cells transfected with control vectors: induced cell death synergistically with M4N
67NR cells [7]; 26 hrs, M4N 80 μM, Rottlerin 5 μM, Ly294002 20 μM
  TUNEL-positive cell death: Neither Ro nor Ly alone induced TUNEL-positive cell death
67NR cells [7]; [16]
  effect on cell death induced by M4N: enhanced to some extent cell death induced by M4N

## COC(=O)C[C@H](NC(=O)[C@H](C)NC(=O)[C@@H](NC(=O)OCc1ccccc1)C(C)C)C(=O)CF [zVAD, zVAD-fmk] (Cbz-Val-Ala-Asp(OMe)-CH2F)
4T1 cells [2]; 4T1, zVAD 50 μM added 30 minutes before other drugs
  effect of pan-caspase inhibitor on drug-induced TUNEL-positive cell death: didn't affect TUNEL-positive cell death
67NR cells [7]; zVAD 50 μM, 42 hrs
  effect of pan-caspase inhibitor on drug-induced TUNEL-positive cell death: didn't affect TUNEL-positive cell death
